Test results: PubChem BioAssay (NCI)
“And” between values parts separate entries of the source, which are not always exact repeats. Equal entries are not always repeated.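 Exposure lasted 48 hours, with cells grown in 96-well plates and compounds tested at five concentrations. At the GI50, growth is halved. Definition used: TGI = concentration required for complete inhibition of growth.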

Test system: MDA-MB-468 breast
Assay: NCI-60 cell line screen, 48 h

| Compound | GI50 | TGI |
| --- | --- | --- |
| NC(=O)c1cccc(Nc2nccc(Nc3cccc(F)c3)n2)c1 | 3.88 µM | 12.8 µM |
| CCCCCCCCCCN=C(c1ccc(N(C)C)cc1)c1ccc(N(C)C)cc1 | 0.383 µM | 36.7 µM |
| NC(=O)C1(N2CCCCC2)CCN(CCCC(=O)c2ccc(F)cc2)CC1 | 0.0204 µM | 0.0682 µM |
| COc1ccc(-c2nnc(N3CCN(C(=O)CN4CCN(c5ccc(OC)cc5)CC4)CC3)nc2-c2ccc(OC)cc2)cc1 | 4.23 µM | 21.7 µM |
| CC1CCCc2c1nn(C(=O)/C=C(\N)c1ccccc1)c2N (stereo unspecified) | 11.9 µM | > 100 µM |
| Cc1ncc(C(=O)Nc2ccc(CN3CCN(C)CC3)c(C(F)(F)F)c2)cc1C#Cc1cnc(NC2CC2)c2ncccc12 | 3.92 µM | 9.32 µM |
| CCCCCCCCCCCC[n+]1ccccc1 (tested in a mixture with another compound) | 0.246 µM | 3.36 µM |
| O=S1(=O)NCCCN1CCNc1nccc(-c2c(-c3cccc(O)c3)nc3sccn23)n1 | 13.3 µM | > 86.1 µM |
| c1ccc(Cn2cnc3ccc(-c4nc(-c5ccc6c(c5)ncn6C5CCCCC5)cn5ccnc45)cc32)cc1 | 1.92 µM | 4.43 µM |
| Cn1c(/C(C#N)=C/c2ccc3ccccc3c2)cc2ccccc21 | 0.422 µM | > 100 µM |
| Cn1cc(-c2csc(-c3cn(C)c4ccccc34)n2)c2cnccc21 | 0.265 µM | 0.866 µM |
| COc1cc2c(cc1-c1c(C)noc1C)cc(C)c(=O)n2Cc1ccccn1 | 0.859 µM | 4.8 µM |
| COc1ccccc1/C=C/C(=O)/C=C/c1ccccc1O | 0.53 µM | 2.06 µM |
| CCC(=C(c1ccc(OCCCN(C)C)cc1)c1ccc(OCCCN(C)C)cc1)c1ccc(Cl)cc1 | 1.15 µM | 3.74 µM |
| O=C(O)CCC(NC(=S)S)C(=O)O.[Na+].[Zn+2] (stereo unspecified) | > 50 µM | > 50 µM |
| COc1ccc(/C=C2/CCc3cc4ccc(OC)cc4[o+]c32)c(O)c1 | 14 µM | 34.9 µM |
| O=C1C(Cl)=C(Nc2ccccc2)C(=O)c2ccccc21 | 1.52 µM | 3.1 µM |
| COc1ccc2cc(-c3ccc(-c4ccc(C(=N)N)s4)s3)ccc2c1 | 2.34 µM | 4.44 µM |
| Cc1cc(Nc2nc(SCc3ccc(C(=O)Nc4ccc(F)cc4N)cc3)nn3cccc23)n[nH]1 | 0.432 µM | 36 µM |
| CCN(CC)CCNC(=O)c1c(C)[nH]c(/C=C2\C(=O)Nc3ccc(F)cc32)c1C | > 10 µM and 3.25 µM and 1.41 µM | > 10 µM and 6.21 µM and 4.31 µM |
| CCCCCCCCCCCCCCCCCCNC(=O)[C@H]1CSC(c2cccs2)N1 (stereo partly specified) | 9.32 µM | > 50 µM |
| CCN(CC)CCNC(=O)c1cn2ncnc(Oc3ccc(NC(=O)Nc4ccc(Cl)c(C(F)(F)F)c4)c(F)c3)c2c1C | 1.57 µM | 3.2 µM |
| Cc1nc(Nc2n[nH]c3c2CN(C(=O)N[C@H](CN(C)C)c2ccccc2)C3(C)C)c2sccc2n1 | 0.247 µM and 0.226 µM | 2.26 µM and 2.47 µM |
| Cn1c([N+](=O)[O-])cnc1/C=C1\Oc2cc(Cl)ccc2C1=O | 3.15 µM | 15.2 µM |
| O=C(/C=C/c1ccccc1)CC(c1ccccc1)N1CCOCC1 (stereo unspecified) | 2.05 µM | 5.56 µM |
| CCC1=C[C@@H]2CN(C1)Cc1c([nH]c3ccccc13)[C@@](C(=O)OC)(c1cc3c(cc1OC)N(C)[C@H]1[C@@](O)(C(=O)OC)[C@H](OC(C)=O)[C@]4(CC)[C@@H]5C[C@@H]5CN5CC[C@]31[C@@H]54)C2 | < 0.005 µM | 5.74 µM |
| C[C@H](Cn1ncnn1)Nc1ncc2cc(Oc3ccc(F)cc3F)c(=O)n(C)c2n1 | > 25 µM | > 25 µM |
| O=S(=O)(CCOCc1ccc(-c2ccc3ncnc(Nc4ccc(OCc5cccc(F)c5)c(Cl)c4)c3c2)o1)c1ccccc1 | 0.105 µM | 2.33 µM |
